Patent US20240254129A1, “HETEROCYCLIC COMPOUNDS AND USES THEREOF” (Kumquat Biosciences Inc., priority 2021, published 2024)
pIC50: −log10 of the molar value. Read-outs that look alike come from different tables or passages of the source. One block for each compound: values may come before it.

Legend:
[1] = target: GST-tagged K-Ras mutant / His-tagged hSOS1 (Homo sapiens, UniProt P01116); assay: HTRF assay, K-Ras mutant / SOS1 interaction; format: binding; details: read-out: IC50 against mutant Kras
From the text: (§1) This assay can be also used to assess a selective inhibition of a mutant Ras protein relative to a wildtype, or relative to a different mutant Ras protein. For example, the equilibrium interaction of wildtype Kras or K-Ras mutant (e.g., wildtype or a mutant thereof including those mentioned in Example 6) with SOS1 (e.g., hSOS1) can be assessed as a proxy or an indication for a subject compound's ability to bind and inhibit Ras protein. HTRF assay detects from (i) a fluorescence resonance energy transfer (FRET) donor (e.g., antiGST-Europium) that is bound to GST-tagged K-Ras mutant to (ii) a FRET acceptor (e.g., anti-6His-XL665) bound to a His-tagged hSOS1.
(§2) The assay buffer can contain ˜5 mM HEPES pH 7.4, ˜150 mM NaCl, ˜ 1 mM DTT, 0.05% BSA and 0.0025% (v/v) Igepal. A Ras working solution is prepared in an assay buffer containing typically a suitable amount of the protein construct (e.g., GST-tagged K-Ras mutant) and the FRET donor (e.g., antiGST-Eu(K) from Cisbio, France). A SOS1 working solution is prepared in an assay buffer containing suitable amount of the protein construct (e.g., His-hSOS1) and the FRET acceptor (e.g., anti-6His-XL665 from Cisbio, France). A suitable amount of the protein construct will depend on the range of activity or range of IC50 values being detected or under investigation. For detecting IC50 within a range of 500 nM, the protein constructs of the same range of molarity can be utilized.
(§3) A fixed volume of DMSO with or without test compound is transferred into a 384-well plate. Ras working solution is added to all wells of the test plate. SOS1 working solution is added to all wells except for those that are subsequently filled the inhibitor control solution. Upon incubation for about 10 minutes or longer, the fluorescence is measured with a M1000Pro plate reader (Tecan) using HTRF detection (excitation 337 nm, emission 1: 620 nm, emission 2: 665 nm). Compounds are tested in duplicates at different concentrations (for example, 10 μM, 2.5 μM, 0.63 μM, 0.16 μM, 0.04 µM, 0.01 μM test compound). The ratiometric data (i.e., emission 2 divided by emission 1) is used to calculate IC50 values against Ras using GraphPad Prism (GraphPad software). Following this general procedure, samples were tested with or without a subject compound disclosed herein including compounds exemplified in Table 1 to assess their abilities to inhibit K-Ras signaling or their respective IC50 values against a given Ras protein (e.g., a given mutant K-Ras) of interest.

[2] = target: T1, wildtype Kras / hSOS1 (Homo sapiens, UniProt P01116); assay: HTRF assay, wildtype Kras / SOS1 interaction; format: binding; details: read-out: IC50 against wildtype Kras
T1 construct: made in house; host or cells: E. coli BL21 (DE3)
From the text: as §1, §2, §3

[3] = compound nos. 102-196, general methodology of example 5

T1 sequence (P01116 1-188 isoform P01116-2): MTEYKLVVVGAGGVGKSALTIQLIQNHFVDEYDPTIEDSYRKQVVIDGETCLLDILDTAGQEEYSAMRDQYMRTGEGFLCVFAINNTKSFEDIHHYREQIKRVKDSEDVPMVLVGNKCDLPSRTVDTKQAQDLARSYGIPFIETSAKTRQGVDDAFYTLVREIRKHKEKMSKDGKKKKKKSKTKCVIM
GST-tagged K-Ras mutant / His-tagged hSOS1, sequence (P01116 whole entry G12D, form open): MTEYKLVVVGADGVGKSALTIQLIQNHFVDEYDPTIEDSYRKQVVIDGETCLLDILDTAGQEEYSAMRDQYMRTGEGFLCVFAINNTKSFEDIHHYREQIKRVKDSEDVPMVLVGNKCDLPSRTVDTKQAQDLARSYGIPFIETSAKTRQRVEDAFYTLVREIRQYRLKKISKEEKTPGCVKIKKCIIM

Compound: Oc1cc(-c2cnc3c(N4CC5CCC(C4)N5)nc(OC[C@@]45CCCN4C[C@H](F)C5)nc3c2)c2ccccc2c1 (single isomer, unassigned) [Compound 429]
pIC50 ([1]; compound nos. 401-703): < 6.30
pIC50 ([2]; compound nos. 401-703): > 6.30

Compound: Oc1cc(-c2cnc3c(N4CC5CCC(C4)N5)nc(OC[C@@]45CCCN4C[C@H](F)C5)nc3c2)c2ccccc2c1 (single isomer, unassigned) [Compound 610]
pIC50 ([1]; compound nos. 401-703): < 6.30
pIC50 ([2]; compound nos. 401-703): < 6.30

Compound: CN1CCC[C@H]1COc1nc(N2CCNCC(O)C2)c2cc(Cl)c(-c3cccc4sc(N)nc34)c(F)c2n1 (stereo partly drawn) [Compound 103, 1-(7-(2-aminobenzo[d]-thiazol-4-yl)-6-chloro-8-fluoro-2-(((S)-1-methyl-pyrrolidin-2-yl)methoxy)-quinazolin-4-yl)-1,4-diazepan-6-ol]
pIC50 [1, 3]: > 6.30
pIC50 [2, 3]: > 6.30

Compound: CN1CCC[C@H]1COc1nc(N2CCOCC(F)(F)C2)c2cc(Cl)c(-c3ccc(F)c4sc(N)nc34)c(F)c2n1 [Compound 106, 4-(6-chloro-4-(6,6-difluoro-1,4-oxazepan-4-yl)-8-fluoro-2-(((S)-1-methylpyrrolidin-2-yl)methoxy)quinazolin-7-yl)-7-fluorobenzo[d]thiazol-2-amine]
pIC50 [1, 3]: > 6.30
pIC50 [2, 3]: > 6.30

Compound: CN1CCC[C@H]1COc1nc(N2CCNC3COCC32)c2cc(Cl)c(-c3cccc4sc(N)nc34)c(F)c2n1 (stereo partly drawn) [Compound 107, 4-(6-chloro-8-fluoro-4-(hexahydrofuro[3,4-b]pyr-azin-1(2H)-yl)-2-(((S)-1-methylpyrrolidin-2-yl)meth-oxy)quinazolin-7-yl)benzo-[d]thiazol-2-amine]
pIC50 [1, 3]: < 6.30
pIC50 [2, 3]: < 6.30

Compound: Cc1ccnc(C(C)C)c1-n1c(=O)nc(N2CCNCC(F)(F)C2)c2cc(F)c(-c3cccc4sc(N)nc34)nc21 [Compound 111, 7-(2-aminobenzo[d]thiazol-4-yl)-4-(6,6-difluoro-1,4-diazepan-1-yl)-6-fluoro-1-(2-isopropyl-4-methylpyr-idin-3-yl)pyrido[2,3-d]pyr-imidin-2(1H)-one]
pIC50 [1, 3]: < 6.30
pIC50 [2, 3]: < 6.30

Compound: CN1CCC[C@H]1COc1nc(N2CCNC(=O)C(F)(F)C2)c2cc(Cl)c(-c3ccc(F)c4sc(N)nc34)c(F)c2n1 [Compound 112, 1-(7-(2-amino-7-fluoro-benzo[d]thiazol-4-yl)-6-chloro-8-fluoro-2-(((S)-1-methylpyrrolidin-2-yl)meth-oxy)quinazolin-4-yl)-6,6-difluoro-1,4-diazepan-5-one]
pIC50 [1, 3]: > 6.30
pIC50 [2, 3]: > 6.30

Compound: CN1CCC[C@@H]1COc1nc(N2CCNCC(F)(F)C2)c2cc(Cl)c(-c3cccc4sc(N)nc34)c(F)c2n1 [Compound 113, 4-(6-chloro-4-(6,6-difluoro-1,4-diazepan-1-yl)-8-fluoro-2-(((R)-1-methylpyrrolidin-2-yl)methoxy)quinazolin-7-yl)benzo[d]thiazol-2-amine]
pIC50 [1, 3]: > 6.30
pIC50 [2, 3]: > 6.30

Compound: Nc1nc2c(-c3c(Cl)cc4c(N5CCOCC(F)(F)C5)nc(OCC56CCCN5CCC6)nc4c3F)cccc2s1 [Compound 114, 4-(6-chloro-4-(6,6-difluoro-1,4-oxazepan-4-yl)-8-fluoro-2-((tetrahydro-1H-pyrrolizin-7a(5H)-yl)methoxy)quin-azolin-7-yl)benzo[d]thiazol-2-amine]
pIC50 [1, 3]: > 6.30
pIC50 [2, 3]: > 6.30

Compound: Nc1nc2c(-c3c(Cl)cc4c(N5CCCCC(F)(F)C5)nc(OCC56CCCN5CCC6)nc4c3F)cccc2s1 [Compound 116, 4-(6-chloro-4-(3,3-difluoro-azepan-1-yl)-8-fluoro-2-((tetrahydro-1H-pyrrolizin-7a(5H)-yl)methoxy)quin-azolin-7-yl)benzo[d]thiazol-2-amine]
pIC50 [1, 3]: > 6.30
pIC50 [2, 3]: > 6.30

Compound: Nc1nc2c(-c3c(Cl)cc4c(N5CCCCC(F)(F)C5)nc(OCC56CCCN5CCC6)nc4c3F)ccc(F)c2s1 [Compound 117, 4-(6-chloro-4-(3,3-difluoro-azepan-1-yl)-8-fluoro-2-((tetrahydro-1H-pyrrolizin-7a(5H)-yl)methoxy)quin-azolin-7-yl)-7-fluorobenzo-[d]thiazol-2-amine]
pIC50 [1, 3]: > 6.30
pIC50 [2, 3]: > 6.30

Compound: CN1CCC[C@H]1COc1nc(N2CCCC(NC3CC3)CC2)c2cc(Cl)c(-c3cccc4sc(N)nc34)c(F)c2n1 (stereo partly drawn) [Compound 590, 4-(6-chloro-4-(4-(cycloprop-ylamino)azepan-1-yl)-8-fluoro-2-(((S)-1-methylpyr-rolidin-2-yl)methoxy)quin-azolin-7-yl)benzo[d]thiazol-2-amine]
pIC50 ([1]; compound nos. 401-703): < 6.30

Compound: CN1CCC[C@H]1COc1nc(N2CCC(O)C(F)CC2)c2cc(Cl)c(-c3cccc4sc(N)nc34)c(F)c2n1 (stereo partly drawn) [Compound 675, 1-(7-(2-aminobenzo[d]-thiazol-4-yl)-6-chloro-8-fluoro-2-(((S)-1-methyl-pyrrolidin-2-yl)methoxy)-quinazolin-4-yl)-5-fluoro-azepan-4-ol]
pIC50 ([2]; compound nos. 401-703): < 6.30

The remaining lines, values ahead:

pIC50 [1, 3]: > 6.30
pIC50 [2, 3]: > 6.30
Compound: CN1CCC[C@H]1COc1nc(N2CCNCC(F)(F)C2)c2cc(Cl)c(-c3cccc4sc(N)nc34)c(F)c2n1 [Compound 102, 4-(6-chloro-4-(6,6-difluoro-1,4-diazepan-1-yl)-8-fluoro-2-(((S)-1-methylpyrrolidin-2-yl)methoxy)quinazolin-7-yl)benzo[d]thiazol-2-amine]

pIC50 [1, 3]: > 6.30
pIC50 [2, 3]: > 6.30
Compound: CN1CCC[C@H]1COc1nc(N2CCNCC(F)(F)C2)c2cc(Cl)c(-c3ccc(F)c4sc(N)nc34)c(F)c2n1 [Compound 104, 4-(6-chloro-4-(6,6-difluoro-1,4-diazepan-1-yl)-8-fluoro-2-(((S)-1-methylpyrrolidin-2-yl)methoxy)quinazolin-7-yl)-7-fluorobenzo[d]thiazol-2-amine]

pIC50 [1, 3]: > 6.30
pIC50 [2, 3]: > 6.30
Compound: Nc1nc2c(-c3c(Cl)cc4c(N5CCNCC(F)(F)C5)nc(OCC56CCCN5CCC6)nc4c3F)cccc2s1 [Compound 105, 4-(6-chloro-4-(6,6-difluoro-1,4-diazepan-1-yl)-8-fluoro-2-((tetrahydro-1H-pyrrol-izin-7a(5H)-yl)methoxy)-quinazolin-7-yl)benzo[d]-thiazol-2-amine]

pIC50 [1, 3]: > 6.30
pIC50 [2, 3]: > 6.30
Compound: CN1CCC[C@H]1COc1nc(N2CCCCC(F)(F)C2)c2cc(Cl)c(-c3ccc(F)c4sc(N)nc34)c(F)c2n1 [Compound 108, 4-(6-chloro-4-(3,3-difluoro-azepan-1-yl)-8-fluoro-2-(((S)-1-methylpyrrolidin-2-yl)methoxy)quinazolin-7-yl)-7-fluorobenzo[d]thiazol-2-amine]

pIC50 [1, 3]: > 6.30
pIC50 [2, 3]: > 6.30
Compound: Nc1nc2c(-c3c(Cl)cc4c(N5CCNCC(F)(F)C5)nc(OCC56CCCN5CCC6)nc4c3F)ccc(F)c2s1 [Compound 109, 4-(6-chloro-4-(6,6-difluoro-1,4-diazepan-1-yl)-8-fluoro-2-((tetrahydro-1H-pyrrol-izin-7a(5H)-yl)methoxy)-quinazolin-7-yl)-7-fluoro-benzo[d]thiazol-2-amine]

pIC50 [1, 3]: < 6.30
pIC50 [2, 3]: < 6.30
Compound: Nc1nc2c(-c3c(Cl)cc4c(N5CCNCC(F)(F)C5)ncnc4c3F)cccc2s1 [Compound 110, 4-(6-chloro-4-(6,6-difluoro-1,4-diazepan-1-yl)-8-fluoro-quinazolin-7-yl)benzo[d]-thiazol-2-amine]

pIC50 [1, 3]: > 6.30
pIC50 [2, 3]: > 6.30
Compound: Nc1nc2c(-c3c(Cl)cc4c(N5CCOCC(F)(F)C5)nc(OCC56CCCN5CCC6)nc4c3F)ccc(F)c2s1 [Compound 115, 4-(6-chloro-4-(6,6-difluoro-1,4-oxazepan-4-yl)-8-fluoro-2-((tetrahydro-1H-pyrrol-izin-7a(5H)-yl)methoxy)-quinazolin-7-yl)-7-fluoro-benzo[d]thiazol-2-amine]

pIC50 [1, 3]: > 6.30
Compound: N#CCC1CNCCN(c2nc(OCC34CCCN3CCC4)nc3c(F)c(-c4ccc(F)c5sc(N)nc45)c(Cl)cc23)C1 (stereo not drawn) [Compound 188, 2-(1-(7-(2-amino-7-fluoro-benzo[d]thiazol-4-yl)-6-chloro-8-fluoro-2-((tetra-hydro-1H-pyrrolizin-7a(5H)-yl)methoxy)quin-azolin-4-yl)-1,4-diazepan-6-yl)acetonitrile]
